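Exposure lasted 48 hours, with cells grown in 96-well plates and compounds tested at five concentrations. At the GI50, growth is halved.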 Calls of active or inactive are those of the source. Rule as the data show it: active = GI50 up to about 1.1 µM and inactive = higher.
Experiments:
Assay in all cases: growth of human tumour cells (NCI), 48 h
SF-268 = test system: SF-268
SK-MEL-28 = test system: SK-MEL-28
SNB-19 = test system: SNB-19
RXF 393 = test system: RXF 393
SR = test system: SR
SW-620 = test system: SW-620
PC-3 = test system: PC-3
NCI-H522 = test system: NCI-H522
BT-549 = test system: BT-549
OVCAR-8 = test system: OVCAR-8
TK-10 = test system: TK-10
U-251 = test system: U-251
SF-539 = test system: SF-539
NCI-H226 = test system: NCI-H226
MCF7 = test system: MCF7
M14 = test system: M14
IGROV-1 = test system: IGROV-1
T47D = test system: T47D
HCC 2998 = test system: HCC 2998
OVCAR-3 = test system: OVCAR-3

Row | SMILES | GI50 (SF-268) | GI50 (SK-MEL-28) | GI50 (SNB-19) | GI50 (RXF 393) | GI50 (SR) | GI50 (SW-620) | GI50 (PC-3) | GI50 (NCI-H522) | GI50 (BT-549) | GI50 (OVCAR-8) | GI50 (TK-10) | GI50 (U-251) | GI50 (SF-539) | GI50 (NCI-H226) | GI50 (MCF7) | GI50 (M14) | GI50 (IGROV-1) | GI50 (T47D) | GI50 (HCC 2998) | GI50 (OVCAR-3)
1 | CCN(CC)c1ccc(/C=C(\C#N)c2nc(N)nc(N3N=C(C)CC3(C)C)n2)cc1 | 15 µM (inactive) | 36.1 µM (inactive) | 17.9 µM (inactive) | 8.93 µM (inactive) | 12.2 µM (inactive) | 55.6 µM (inactive) | 37.2 µM (inactive) | 16.9 µM (inactive) | 47.4 µM (inactive) | 10.6 µM (inactive) | 14.8 µM (inactive) | 13.3 µM (inactive) | 6.89 µM (inactive) | 2.9 µM (inactive) | 32 µM (inactive) | 19.2 µM (inactive) | 7.82 µM (inactive) | 17.2 µM (inactive) | 30.1 µM (inactive) | 17.5 µM (inactive)
2 | O=c1[nH]c2ccc(O)cc2o1 | > 100 µM (inactive) | > 100 µM (inactive) | > 100 µM (inactive) | 2.49 µM (inactive) | > 100 µM (inactive) | > 100 µM (inactive) | > 100 µM (inactive) | > 100 µM (inactive) | > 100 µM (inactive) | > 100 µM (inactive) | > 100 µM (inactive) | > 100 µM (inactive) | > 100 µM (inactive) | > 100 µM (inactive) | > 100 µM (inactive) | > 100 µM (inactive) | > 100 µM (inactive) | > 100 µM (inactive) | 2.56 µM (inactive) | > 100 µM (inactive)
3 | CC(C)=CCc1c2c(c3occ(-c4ccc(O)c(O)c4)c(=O)c3c1O)C=CC(C)(C)O2 [POMIFERIN] | 1.87 µM (inactive) | 2.51 µM (inactive) | 1.96 µM (inactive) | 2.39 µM (inactive) | 0.204 µM (active) | 0.714 µM (active) | 1.61 µM (inactive) | 0.188 µM (active) | 3.46 µM (inactive) | 2.81 µM (inactive) | 1.6 µM (inactive) | 1.48 µM (inactive) | 1.91 µM (inactive) | 16.9 µM (inactive) | 1.34 µM (inactive) | 1.68 µM (inactive) | 2.11 µM (inactive) | 1.86 µM (inactive) | 1.22 µM (inactive) | 1.66 µM (inactive)
4 | COC(=O)[C@@H]1C[C@H]([Se]c2ccccc2)CN1S(=O)(=O)c1ccc(C)cc1 | 27.9 µM (inactive) | 76.2 µM (inactive) | > 100 µM (inactive) | 39.4 µM (inactive) | 32.1 µM (inactive) | > 100 µM (inactive) | 26.5 µM (inactive) | 38.9 µM (inactive) | 98.2 µM (inactive) | > 100 µM (inactive) | > 100 µM (inactive) | 53 µM (inactive) | > 100 µM (inactive) | > 100 µM (inactive) | 60.3 µM (inactive) | > 100 µM (inactive) | > 100 µM (inactive) | 35.7 µM (inactive) | > 100 µM (inactive) | 56 µM (inactive)
5 | CCOC(=O)C(=O)/C(=C/N1C(=O)CC(=O)NC1=S)C(=O)OCC | > 100 µM (inactive) | > 100 µM (inactive) | > 100 µM (inactive) | > 100 µM (inactive) | > 100 µM (inactive) | > 100 µM (inactive) | > 100 µM (inactive) | > 100 µM (inactive) | > 100 µM (inactive) | > 100 µM (inactive) | – | > 100 µM (inactive) | > 100 µM (inactive) | > 100 µM (inactive) | > 100 µM (inactive) | > 100 µM (inactive) | > 100 µM (inactive) | > 100 µM (inactive) | > 100 µM (inactive) | 0.719 µM (active)
6 | CC(C)=NNc1cnnc2ccc([N+](=O)[O-])cc12 | > 100 µM (inactive) | – | > 100 µM (inactive) | > 100 µM (inactive) | 30.3 µM (inactive) | > 100 µM (inactive) | > 100 µM (inactive) | 15.5 µM (inactive) | > 100 µM (inactive) | > 100 µM (inactive) | – | > 100 µM (inactive) | > 100 µM (inactive) | > 100 µM (inactive) | 57.8 µM (inactive) | 78 µM (inactive) | 21.4 µM (inactive) | 65.2 µM (inactive) | – | –
7 | C[C@H](CCC(=O)O)[C@H]1CC[C@H]2[C@@H]3[C@@H](O)C[C@@H]4C[C@H](O)CC[C@]4(C)[C@H]3CC[C@]12C [URSODIOL] | > 100 µM (inactive) | > 100 µM (inactive) | > 100 µM (inactive) | > 100 µM (inactive) | 25.1 µM (inactive) | > 100 µM (inactive) | > 100 µM (inactive) | > 100 µM (inactive) | > 100 µM (inactive) | > 100 µM (inactive) | > 100 µM (inactive) | > 100 µM (inactive) | > 100 µM (inactive) | > 100 µM (inactive) | > 100 µM (inactive) | > 100 µM (inactive) | > 100 µM (inactive) | > 100 µM (inactive) | > 100 µM (inactive) | –
8 | NNc1nncn1N | > 100 µM (inactive) | > 100 µM (inactive) | > 100 µM (inactive) | > 100 µM (inactive) | 39.1 µM (inactive) | > 57.1 µM (inactive) | > 100 µM (inactive) | > 93.1 µM (inactive) | > 100 µM (inactive) | > 96.6 µM (inactive) | > 100 µM (inactive) | > 100 µM (inactive) | > 53.8 µM (inactive) | > 100 µM (inactive) | > 100 µM (inactive) | > 100 µM (inactive) | > 100 µM (inactive) | 63 µM (inactive) | – | > 49.7 µM (inactive)
9 | O=c1ccn(CC2(CO)CCCC2)c(=O)[nH]1 | > 100 µM (inactive) | > 100 µM (inactive) | – | > 100 µM (inactive) | > 100 µM (inactive) | > 100 µM (inactive) | > 100 µM (inactive) | > 100 µM (inactive) | > 100 µM (inactive) | > 100 µM (inactive) | > 100 µM (inactive) | > 100 µM (inactive) | > 100 µM (inactive) | > 100 µM (inactive) | > 100 µM (inactive) | – | > 100 µM (inactive) | > 100 µM (inactive) | > 100 µM (inactive) | > 100 µM (inactive)
10 | NNC(=O)CC(=O)Nc1cccc(Cl)c1 | > 100 µM (inactive) | > 100 µM (inactive) | > 100 µM (inactive) | > 100 µM (inactive) | > 100 µM (inactive) | > 100 µM (inactive) | > 100 µM (inactive) | 25.4 µM (inactive) | > 100 µM (inactive) | > 100 µM (inactive) | > 100 µM (inactive) | > 100 µM (inactive) | > 100 µM (inactive) | > 100 µM (inactive) | > 100 µM (inactive) | – | > 100 µM (inactive) | > 100 µM (inactive) | > 100 µM (inactive) | > 100 µM (inactive)
11 | Cc1cc2c(cc1C)[n+]([O-])c(C(F)(F)F)c(C(=O)c1ccccc1)[n+]2[O-] | 1.91 µM (inactive) | 4.52 µM (inactive) | 3.56 µM (inactive) | 3.13 µM (inactive) | 0.527 µM (active) | 3.72 µM (inactive) | 2.09 µM (inactive) | 2.99 µM (inactive) | 5.35 µM (inactive) | 2.93 µM (inactive) | 3.3 µM (inactive) | 2.67 µM (inactive) | 5.07 µM (inactive) | – | 3.27 µM (inactive) | 3.73 µM (inactive) | 1.37 µM (inactive) | 0.724 µM (active) | – | 0.227 µM (active)
12 | O=C(N/N=C1/C(=O)c2c3ccccc3cc3cccc1c23)c1ccccc1 | 30 µM (inactive) | > 54.8 µM (inactive) | 35.8 µM (inactive) | 22.1 µM (inactive) | > 58.6 µM (inactive) | > 100 µM (inactive) | 26.7 µM (inactive) | 32.7 µM (inactive) | > 100 µM (inactive) | 31.1 µM (inactive) | 22.1 µM (inactive) | 31.6 µM (inactive) | 37.1 µM (inactive) | > 43.8 µM (inactive) | 30.4 µM (inactive) | 48.4 µM (inactive) | 25.4 µM (inactive) | 3.69 µM (inactive) | – | 42.3 µM (inactive)
13 | COC1CCON1C(=O)c1ccccc1 (stereo not given) | > 10 µM (inactive) | > 10 µM (inactive) | > 10 µM (inactive) | > 10 µM (inactive) | > 10 µM (inactive) | > 10 µM (inactive) | > 10 µM (inactive) | > 10 µM (inactive) | > 10 µM (inactive) | > 10 µM (inactive) | > 10 µM (inactive) | – | > 10 µM (inactive) | > 10 µM (inactive) | > 10 µM (inactive) | > 10 µM (inactive) | > 10 µM (inactive) | > 10 µM (inactive) | > 10 µM (inactive) | > 10 µM (inactive)
14 | O=[N+]([O-])c1ccc(/C=C(/c2ccc([N+](=O)[O-])o2)S(=O)(=O)c2ccccc2)o1 | 15.6 µM (inactive) | 15.6 µM (inactive) | 20.1 µM (inactive) | 25.1 µM (inactive) | 1.02 µM (active) | 2.26 µM (inactive) | 16.4 µM (inactive) | 1.93 µM (inactive) | 19.9 µM (inactive) | 4.49 µM (inactive) | 4.1 µM (inactive) | 15.9 µM (inactive) | 18.1 µM (inactive) | 1.42 µM (inactive) | 11.8 µM (inactive) | 11.1 µM (inactive) | 16.6 µM (inactive) | 11.4 µM (inactive) | – | 6.14 µM (inactive)
